Measured values published in ChEMBL document CHEMBL5321275, “Discovery, Optimization, and Evaluation of Novel N-(Benzimidazol-5-yl)-1,3,4-thiadiazol-2-amine Analogues as Potent STAT3 Inhibitors for Cancer Treatment” (J Med Chem, 2023).
Converted amounts (≈) assume the structure as drawn. The source made the active and inactive calls. No cut-off for these calls is given here.

Tests used:
[1] = Clearance in ICR mouse at 50 mg/kg, po measured upto 96 hrs by HPLC-MS/MS analysis; assay type: ADME, organism-based; conditions: in vivo
MDA-MB-231 [2] = assay: Antiproliferative activity against human MDA-MB-231 cells assessed as inhibition of cell growth measured after 96 hrs by MTT assay; assay type: functional, cell-based; conditions: MDA-MB-231, 96 h
[3] = biological target: T1, Signal transducer and activator of transcription 1-alpha/beta (Homo sapiens) (UniProt P42224); assay: Inhibition of STAT1 phosphorylation in human DU-145 cells at 10 uM measured after 24 hrs by Western blot analysis; assay type: cell-based
T1 sequence (whole entry): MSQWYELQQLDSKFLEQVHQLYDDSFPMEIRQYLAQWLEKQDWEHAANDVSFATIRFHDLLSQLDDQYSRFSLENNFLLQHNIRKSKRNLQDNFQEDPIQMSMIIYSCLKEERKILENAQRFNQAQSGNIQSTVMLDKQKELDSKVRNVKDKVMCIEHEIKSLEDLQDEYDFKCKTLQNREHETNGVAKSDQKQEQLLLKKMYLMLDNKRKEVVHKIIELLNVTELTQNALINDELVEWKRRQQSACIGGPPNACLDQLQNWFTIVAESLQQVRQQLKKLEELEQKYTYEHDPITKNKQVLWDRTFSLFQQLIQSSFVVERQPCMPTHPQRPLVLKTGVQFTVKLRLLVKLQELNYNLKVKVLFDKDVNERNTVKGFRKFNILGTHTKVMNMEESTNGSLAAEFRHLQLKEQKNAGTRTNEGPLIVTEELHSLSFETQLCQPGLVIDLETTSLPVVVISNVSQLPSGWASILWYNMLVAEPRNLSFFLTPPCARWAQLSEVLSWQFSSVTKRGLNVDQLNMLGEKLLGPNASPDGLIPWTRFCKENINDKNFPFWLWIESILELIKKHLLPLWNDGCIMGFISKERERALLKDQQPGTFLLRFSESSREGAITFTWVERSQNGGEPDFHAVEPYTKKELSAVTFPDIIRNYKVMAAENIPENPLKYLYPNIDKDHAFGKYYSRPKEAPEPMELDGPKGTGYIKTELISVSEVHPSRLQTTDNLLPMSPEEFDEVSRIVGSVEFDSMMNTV

[4] = Toxicity in Balb/c mouse assessed as effect on kidney at 50 mg/kg by hematoxylin and eosin staining based histopathological analysis; assay type: organism-based; conditions: in vivo
DU-145 [5] = assay: Induction of apoptosis in human DU-145 cells assessed as induction of PARP cleavage at upto 10 uM measured after 48 hrs by […]; assay type: functional, cell-based
[6] = Drug concentration in ICR mouse plasma at 50 mg/kg, po measured after 2 to 8 hrs; assay type: ADME, organism-based; conditions: in vivo, time 2-8 hrs
DU-145 [7] = assay: Induction of apoptosis in human DU-145 cells assessed as late apoptotic cells at 10 uM measured after 48 hrs by annexin V-FITC and PI staining based flow cytometry analysis (reference value: 2.0%); assay type: functional
[8] = biological target: T2, Signal transducer and activator of transcription 3 (Homo sapiens, UniProt P40763); assay: Inhibition of STAT3 in human DU-145 cells assessed as downregulation of Bcl-2 expression at upto 10 uM measured after 24 hrs; assay type: cell-based
T2 sequence (P40763 whole entry): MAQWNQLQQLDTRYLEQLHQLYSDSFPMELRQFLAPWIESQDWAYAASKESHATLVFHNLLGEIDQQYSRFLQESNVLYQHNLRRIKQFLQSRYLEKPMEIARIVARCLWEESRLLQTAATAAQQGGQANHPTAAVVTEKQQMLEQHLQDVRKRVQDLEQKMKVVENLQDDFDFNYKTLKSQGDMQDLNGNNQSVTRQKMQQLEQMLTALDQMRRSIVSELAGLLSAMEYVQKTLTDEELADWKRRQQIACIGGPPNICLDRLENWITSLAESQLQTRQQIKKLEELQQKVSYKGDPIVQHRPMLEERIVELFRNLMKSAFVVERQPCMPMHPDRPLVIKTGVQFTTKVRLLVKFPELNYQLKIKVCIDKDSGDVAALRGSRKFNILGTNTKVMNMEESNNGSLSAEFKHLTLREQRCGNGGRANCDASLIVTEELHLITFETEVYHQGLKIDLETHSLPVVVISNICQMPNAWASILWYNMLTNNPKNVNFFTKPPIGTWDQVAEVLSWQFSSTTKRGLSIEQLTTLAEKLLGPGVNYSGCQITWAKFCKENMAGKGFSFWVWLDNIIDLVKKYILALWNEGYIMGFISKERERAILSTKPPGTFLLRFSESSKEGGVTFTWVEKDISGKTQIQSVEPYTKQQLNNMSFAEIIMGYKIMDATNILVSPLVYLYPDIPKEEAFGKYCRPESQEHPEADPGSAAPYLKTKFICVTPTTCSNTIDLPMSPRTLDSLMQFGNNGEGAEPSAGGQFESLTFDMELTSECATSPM

MDA-MB-231 [9] = assay: Induction of apoptosis in human MDA-MB-231 cells assessed as early apoptotic cells at 5 uM measured after 48 hrs by annexin V-FITC and PI staining based flow cytometry analysis (reference value: 6.7%); assay type: functional
[10] = biological target: T2, Signal transducer and activator of transcription 3; assay: Inhibition of STAT3 in human DU-145 cells assessed as downregulation of c-myc expression at upto 10 uM measured after 24 hrs; assay type: cell-based
DU-145 [11] = assay: Antitumor activity against human DU-145 cells xenografted in Balb/c nude mouse model assessed as reduction in phosphorylated STAT3 at Y705 residue by immunoblotting analysis; assay type: functional, cell-based
[12] = Cmax in ICR mouse at 5 mg/kg, iv measured upto 96 hrs by HPLC-MS/MS analysis; assay type: ADME, organism-based; set-up: dose 5 mg/kg, time < 96 hrs, route iv; conditions: in vivo
DU-145 [13] = assay: Induction of cell cycle arrest in human DU-145 cells assessed as accumulation of cells at G0/G1 phase measured after 24 hrs by PI staining based flow cytometry analysis; assay type: functional; conditions: dose <= 10.0 µM
MDA-MB-231 [14] = assay: Induction of apoptosis in human MDA-MB-231 cells assessed as late apoptotic cells at 10 uM measured after 48 hrs by annexin V-FITC and PI staining based flow cytometry analysis (reference value: 3.1%); assay type: functional
[15] = Antiproliferative activity against human PBMC cells assessed as inhibition of cell growth measured after 96 hrs by MTT assay; assay type: functional, cell-based
[16] = MRT (0 to t) in ICR mouse at 50 mg/kg, po measured upto 96 hrs by HPLC-MS/MS analysis; assay type: ADME, organism-based; conditions: in vivo
MDA-MB-231 [17] = assay: Induction of apoptosis in human MDA-MB-231 cells assessed as early apoptotic cells at 10 uM measured after 48 hrs by annexin V-FITC and PI staining based flow cytometry analysis (reference value: 6.7%); assay type: functional
MDA-MB-231 [18] = assay: Induction of apoptosis in human MDA-MB-231 cells assessed as induction of PARP cleavage at upto 10 uM measured after 48 hrs by […]; assay type: functional, cell-based
[19] = Toxicity in Balb/c mouse assessed as effect on body weight loss at 50 mg/kg, ip administered once daily for 16 days; assay type: organism-based; conditions: in vivo, 384 h, time 16 day
[20] = Metabolic stability in mouse liver microsomes assessed as intrinsic clearance in presence of NADPH/UDPGA; assay type: ADME, Microsome; conditions: read-out: CLH
[21] = Solubility of compound in water incubated for 10 mins; assay type: physicochemical
[22] = AUC (0 to t) in ICR mouse at 5 mg/kg, iv measured upto 96 hrs by HPLC-MS/MS analysis; assay type: ADME, organism-based; set-up: time < 96 hrs, dose 5 mg/kg, route iv; conditions: in vivo
DU-145 [23] = assay: Induction of apoptosis in human DU-145 cells assessed as early apoptotic cells at 10 uM measured after 48 hrs by annexin V-FITC and PI staining based flow cytometry analysis (reference value: 2.5%); assay type: functional
DU-145 [24] = assay: Induction of apoptosis in human DU-145 cells measured after 48 hrs by annexin V-FITC and PI staining based flow cytometry analysis; assay type: functional, cell-based; conditions: dose <= 10.0 µM
DU-145 [25] = assay: Antitumor activity against human DU-145 cells xenografted in Balb/c nude mouse model assessed as tumor growth inhibition at 50 mg/kg, ip administered once daily for 16 days by vernier caliper method relative to control; assay type: functional; conditions: DU-145, 384 h, time 16 day, read-out: TGI
MDA-MB-231 [26] = assay: Induction of apoptosis in human MDA-MB-231 cells assessed as cell apoptotic percentage at 10 uM measured after 48 hrs by annexin V-FITC and PI staining based flow cytometry analysis relative to control; assay type: functional
[27] = biological target: T2, Signal transducer and activator of transcription 3; assay: Inhibition of STAT3 phosphorylation at Tyr705 residue in human DU-145 cells incubated for 24 hrs by Western blot analysis; assay type: cell-based; conditions: dose <= 10.0 µM
PANC-1 = assay: Antiproliferative activity against human PANC-1 cells assessed as inhibition of cell growth measured after 96 hrs by MTT assay; assay type: functional, cell-based; conditions: PANC-1, 96 h
HepG2 = assay: Antiproliferative activity against human HepG2 cells assessed as inhibition of cell growth measured after 96 hrs by MTT assay; assay type: functional, cell-based; conditions: HepG2, 96 h
[28] = Toxicity in Balb/c mouse assessed as serious adverse effect at 50 mg/kg, ip administered once daily for 16 days; assay type: organism-based; conditions: in vivo, 384 h, time 16 day

With `CN1CCN(c2cc3c(cc2Nc2nnc(-c4ccc(C(F)(F)F)cc4)s2)nc(-c2ccc(F)cc2)n3C2CC2)CC1` the CL/F [1] was 46.8 mL/min/kg, the IC50 (MDA-MB-231 [2]) was 3.26 µM and the inhibition [3] was “inactive”. The Activity [4] was “Non-Toxic”, the Activity (DU-145 [5]) was “Active” and the Cp [6] was 771 ng/mL. The Activity (DU-145 [7]) was 45.6%, the inhibition [8] was “Active” and the Activity (MDA-MB-231 [9]) was 12.1%. The inhibition [10] was “Active”, the Activity (DU-145 [11]) was “Active” and the Cmax [12] was 667 ng/mL. The Activity (DU-145 [13]) was “Dose-Dependent Effect”, the Activity (MDA-MB-231 [14]) was 20.1% and the IC50 [15] was 16.3 µM. The MRT last at 96 h [16] was 17.1 h, the Activity (MDA-MB-231 [17]) was 59.2% and the Activity (MDA-MB-231 [18]) was “Active”. For the same compound, the Activity [19] was “Non-Toxic”, the microsomal CLint [20] was 3.68 µL/min/mg and the solubility at 10 min [21] was 1.04 µg/mL (≈ 1.75 µM). The AUC(0-t) at 96 h [22] was 3430 ng·h/mL, the Activity (DU-145 [23]) was 34% and the Activity (DU-145 [24]) was “Dose-Dependent Effect”. The inhibition in vivo at 50 mg/kg (DU-145 [25]) was 65.3%, the Activity (MDA-MB-231 [26]) was 79.3% and the inhibition [27] was “Dose-Dependent Effect”. The IC50 (PANC-1) was 2430 nM, the IC50 (HepG2) was 1450 nM and the Activity [28] was “Non-Toxic”.
